Molecules are shown by their SMILES.

We go through one molecule from PMC12362764, “Novel Cyano‐Artemisinin Dimer ZQJ29 Targets PARP1 to Induce Ferroptosis in Pancreatic Cancer Treatment” (Advanced Science, 2025).

In experiment [1] the test system is PANC-1 and KP4 cells. The experiment is described as follows: Wound healing (cell migration) assay. In kind it is cell-based. The settings on record: 0, 1, 2.5, 5 µM; 12 and 24 h. On the procedure:
PANC‐1 and KP4 cells were cultured in 6‐well plates until complete confluence was reached. A “scratch” or “wound” was made with a sterile 10 µL pipette tip. Following this, the cells were treated with varying concentrations of ZQJ29 (0, 1, 2.5, and 5 µM). After 12 and 24 h, migration activity were observed and captured using an inverted EVOS microscope (Thermo Fisher Scientific, USA). The number of migrated cells were then quantified.

A further experiment deals with PANC-1 cells. As to the kind of experiment: Cell cycle analysis (PI, flow cytometry), PANC-1. Particulars: PANC-1, 24 h. In kind it is cell-based. The method, then:
PANC‐1 and KP4 cells were placed in 6 cm dishes and exposed to designated concentrations of ZQJ29 (1 µM) for 24 h before trypsinization. After centrifugation, the cells were secured and preserved in ice‐cold 70% ethanol and stored at 4 °C for 24 h. They were then thoroughly washed with PBS multiple times. Next, the fixed cells were incubated in PBS supplemented with RNase and PI solution for 30 min at 37 °C, protected from light exposure. Cell cycle progression was assessed using a flow cytometer. This experimental procedure was systematically conducted in three separate trials, with each trial done in triplicate. Cell cycle kits were obtained from Beyotime (Shanghai, China).
For orientation: Flow cytometry measures light scatter and fluorescence of single cells or particles in a stream.

For experiment [2], the system named is PANC-1 and KP4 cells. The experiment is described as follows: Colony formation assay. In kind it is cell-based. The settings on record: 0, 1, 2.5, 5 µM, concentration-dependent. On the procedure: The clonogenicity of pancreatic cancer cells was evaluated using a colony formation assay. PANC‐1 and KP4 cells were seeded into 6‐well plates at ≈200 cells per well in the conditional medium. The cells were treated with different concentrations of ZQJ29 (0, 1, 2.5, and 5 µM) for 24 h. After treatment, the drug‐containing medium was removed, and complete medium was added for an additional […] in a 37 °C incubator with 5% CO2. The plates were then washed with PBS and fixed with 4% paraformaldehyde. After staining with 0.5% crystal violet (Yeasen, Shanghai, China), the colonies were counted manually.

A further experiment concerns HeLa. As to the kind of experiment: CCK-8 cytotoxicity assay, HeLa. The settings on record: Homo sapiens, 72 h. It is filed as cell-based. On the procedure:
(§1) Cell viability was evaluated using the Cell Counting Kit‐8 (Beyotime, Shanghai, China) assay. Cells were seeded in 96‐well plates at a density of 2×10^3 cells to allow for attachment. After treatment with ZQJ29 (0.001, 0.01, 0.1, 10, and 25 µM) for 24, 48, and 72 h, 10 µL of CCK‐8 solution was added to each well and incubated for 1 h. The optical density values were then measured at 450 nm using a multifunctional enzyme‐linked immunosorbent assay reader (Tecan, Spark, Switzerland).
For orientation: Formazan colour is commonly taken as a measure of viable cells.

Another experiment relates to HEK-293T. The experiment is described as follows: CCK-8 cytotoxicity assay, HEK-293T (normal cell line). It is filed as cell-based. The settings on record: Homo sapiens, 72 h. The method, then:
as §1

The test system of another experiment is HPDE6-C7. As to the kind of experiment: CCK-8 cytotoxicity assay, HPDE6-C7 (normal cell line). It is filed as cell-based. The settings on record: HPDE6c7, 72 h. On the procedure: as §1
The test system of a further experiment is HCT116. The experiment is described as follows: CCK-8 cytotoxicity assay, HCT116. It is filed as cell-based. The settings on record: Homo sapiens, HCT-116; HCT116, 72 h. The method, then: as §1
Experiment [3] deals with PANC-1 and KP4 cells. The experiment is described as follows: Ferroptosis markers (lipid ROS, iron, MDA, GSH). It is filed as cell-based. The settings on record: 0, 1, 2.5, 5 µM, 24 h of ZQJ29 treatment.
In another experiment the test system is PANC-1. The experiment is described as follows: Label-free proteomics. The settings on record: PANC-1, 5 µM ZQJ29 vs DMSO, 24 h. In kind it is cell-based. On the procedure: PANC‐1 cells were inoculated into 6‐well plates at ≈2 × 10^5 cells per well and grown for 24 h. After this period, the cells were treated with 5 µM ZQJ29 and an equal volume of solvent (DMSO) for an additional 24 h. Following treatment, the cells were removed from the incubator, and the medium was aspirated and discarded. The cells were washed twice with pre‐cooled PBS, which was then discarded. Next, 30 µL of RIPA lysis buffer containing PMSF (Yeasen, Shanghai, China) was added, and the cells were scraped off quickly using a cell scraper. The cell suspension was collected in 1.5 mL EP tubes and placed on ice. Cells were homogenized using ultrasound (3s × 15 times at 4s intervals), and the mixture was kept on ice for 10–15 min until the foam subsided. The centrifuge was pre‐cooled to 4 °C and centrifuged at 12 000 rpm for 15 min. The supernatant was collected to obtain the protein.
For each group of 3 samples, the protein concentration was determined by the BCA Protein Assay Kit (Beyotime, Shanghai, China). A total of 100 µg of protein was aspirated from each group. Five times the volume of acetone/ethanol/formic acid (50:50:0.1, v/v) was added, and the mixture was thoroughly mixed before allowing the protein to precipitate overnight at −20 °C. […] Finally, the sample was analyzed using instrumental LC‐MS (Agilent, USA).

A further experiment deals with PARP1 (Homo sapiens, UniProt P09874). As to the kind of experiment: DARTS. In kind it is binding. Set-up: Total cellular proteins from PANC‐1 and KP4 were extracted using M‐PER lysis buffer; endogenous in cells; host or cells: PANC-1 and KP4 pancreatic cancer cells. The settings on record: enzyme-lysate ratio 1:3000, higher ZQJ29 concentrations. The method, then: Total cellular proteins from PANC‐1 and KP4 were extracted using M‐PER lysis buffer (Thermo Fisher, USA). Aliquots of 50 µg of protein were taken from the lysate and placed into each 1.5 mL tube. Different concentrations of ZQJ29 were added to some tubes, while control tubes received an equal amount of DMSO. The mixtures were incubated at room temperature for 1 h. After incubation, Pronase was added to the mixture of cellular proteins at a ratio of Pronase: protein = 1: 3000 for digestion at room temperature for 15 min. Following digestion, 5 × loading buffer was added, and the samples were heated at 100 °C for 10 min before being used for western blot analysis.
Sequence of PARP1 (P09874 whole entry): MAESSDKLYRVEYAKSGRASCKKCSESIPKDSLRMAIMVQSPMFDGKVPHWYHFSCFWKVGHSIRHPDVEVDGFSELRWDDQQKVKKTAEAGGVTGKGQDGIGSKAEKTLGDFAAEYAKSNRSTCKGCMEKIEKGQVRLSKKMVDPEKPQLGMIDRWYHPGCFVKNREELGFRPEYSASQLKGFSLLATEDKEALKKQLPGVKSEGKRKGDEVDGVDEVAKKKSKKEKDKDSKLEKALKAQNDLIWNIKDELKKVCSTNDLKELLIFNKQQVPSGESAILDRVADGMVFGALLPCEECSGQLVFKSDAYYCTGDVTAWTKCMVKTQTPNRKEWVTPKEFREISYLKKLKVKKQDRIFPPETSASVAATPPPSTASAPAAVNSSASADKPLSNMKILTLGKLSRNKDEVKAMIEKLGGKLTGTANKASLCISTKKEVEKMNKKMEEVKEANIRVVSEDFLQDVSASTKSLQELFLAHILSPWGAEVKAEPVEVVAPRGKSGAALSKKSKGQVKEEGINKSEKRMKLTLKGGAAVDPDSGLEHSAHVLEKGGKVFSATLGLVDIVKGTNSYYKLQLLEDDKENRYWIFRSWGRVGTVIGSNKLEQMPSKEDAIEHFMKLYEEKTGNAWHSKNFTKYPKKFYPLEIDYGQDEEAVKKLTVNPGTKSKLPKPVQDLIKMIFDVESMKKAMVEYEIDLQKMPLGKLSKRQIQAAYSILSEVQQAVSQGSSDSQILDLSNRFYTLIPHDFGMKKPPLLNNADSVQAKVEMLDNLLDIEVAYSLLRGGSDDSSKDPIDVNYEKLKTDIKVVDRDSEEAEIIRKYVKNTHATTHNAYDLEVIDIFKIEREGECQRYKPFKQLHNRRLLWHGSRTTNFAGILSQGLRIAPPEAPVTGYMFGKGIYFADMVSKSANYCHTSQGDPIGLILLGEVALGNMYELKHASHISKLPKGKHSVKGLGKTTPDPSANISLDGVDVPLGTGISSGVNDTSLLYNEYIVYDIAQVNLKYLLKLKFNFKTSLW

For the next experiment, the system named is JHH7. The experiment is described as follows: CCK-8 cytotoxicity assay, JHH7. In kind it is cell-based. The settings on record: JHH7, 72 h. On the procedure: as §1

As for `CC1CCC2C(C)C(OCCN(C#N)CCOC3OC4OC5(C)CCC6C(C)CCC(C3C)C46OO5)OC3OC4(C)CCC1C32OO4` (centres unmarked) [ZQJ29], the migration abilities result in the experiment on PANC-1 and KP4 cells [1] is “impaired”. Further, the cell cycle arrest entry in the experiment on PANC-1 cells was “remarkable G2/M phase arrest”. In the experiment on PANC-1 and KP4 cells [2], the colony formation entry was “significantly inhibited”. Besides, the IC50 was 1280 ± 289 nM in the experiment with HeLa; more than 10000 nM in the experiment on HEK-293T; more than 10000 nM in the experiment with HPDE6-C7; 1020 ± 500 nM with HCT116; 791 ± 305 nM with JHH7. Besides, in the experiment on PANC-1 and KP4 cells [3], the “intracellular ROS, iron, MDA and GSH levels” value is “increased ROS release, iron accumulation, MDA production, and GSH depletion”. Also, in the experiment on PANC-1, the “PARP1 protein level (proteomics)” value is “prominently down‐regulated”. The “PARP1 accumulation after pronase digestion” value at PARP1 is “increased”.

A word on the IC50: it is the concentration that inhibits the measured activity by half. Lower therefore signals inhibition by little substance.
